Earlier results, collected in PMC4642890 (Bioorganic & medicinal chemistry letters, 2015).

System: neuropathic pain
Details: rodent model

Substance	effect on neuropathic pain	opioid-induced tolerance	reward liability
Tyr^1-DAla^2-Gly^3-Phe^4-Met^5-Pro^6-Leu^7-Trp^8-NH-[3’,5’-Bzl(CF3)2] [TY027]	reverse neuropathic pain	no sign of opioid-induce tolerance	no development of reward liability
Tyr^1-DAla^2-Gly^3-Phe^4-Met^5-Pro^6-Leu^7-Trp^8-O-[3’,5’-Bzl(CF3)2] [TY005]	reverse neuropathic pain	no sign of opioid-induce tolerance	no development of reward liability
